Like-named read-outs stand apart in the source and are kept apart here.

This note sets out measurements from article PMC3025922 (BMC Biology, 2010).

The assay concerns nuclear p27 in LNCaP-S14 cells. It counts as cell-based, human.
Where [1] appears, read: primary screening, nuclear p27 in LNCaP-S14 cells.
[2] abbreviates: primary screening, S = strong, M = medium, W = weak by Z score.

Regarding `CCCN1CCC(N(C(=O)c2cccc(C(F)(F)F)c2)c2ccc3[nH]c(C(C)(C)C)cc3c2)CC1` [1306L20], the “Z score (aver)” value under setting [1] is 6.78. Further, the Clasf entry under setting [2] is “S (strong (Z score > 5))”.
For `O=[N+]([O-])C(=C(Cl)Sc1ccccc1)C(Cl)=C(Cl)Cl` [1159C10], the “Z score (aver)” value under setting [1] is recorded as 2.72. Also, the Clasf result under setting [2] is recorded as “W (weak (Z score 2-3)”.
Take `C=CCNC1=C2C[C@@H](C)C[C@H](OC)[C@H](O)[C@@H](C)/C=C(\C)[C@H](OC(N)=O)[C@@H](OC)/C=C\C=C(/C)C(=O)NC(=CC1=O)C2=O` [17-N-allylamino-17-demethoxygeldanamycin, reference compound]: the “hit in primary screen (increased percentage of p27 positive cells)” value (LNCaP-S14, ~5 to 35 μM, 18 h) is on record as “identified”.
Take `S=C(NCc1ccccc1)Nc1ccc(Br)cc1` [541M20]: the “Z score (aver)” value under setting [1] is listed as 4.62. For the same compound, under setting [2], the Clasf result is on record as “M (medium (Z score 3-5))”.
For `C=C1C(=O)OC2C1CCC(C)=CCCC1(C)OC21` (stereo not drawn) [1569N21], under setting [1], the “Z score (aver)” value came to 8.12. In addition, the Clasf result under setting [2] was “S (strong (Z score > 5))”.
With `CCC(=O)N(Cc1cccc(Cl)c1)c1ccc2[nH]c(C(C)(C)C)cc2c1` [522J18], the “Z score (aver)” value under setting [1] worked out at 6.59. Also, the Clasf result under setting [2] was “S (strong (Z score > 5))”.
With `Cl.OCCN1CCN(CCCN2c3ccccc3Sc3ccc(C(F)(F)F)cc32)CC1` [1568P22], the “Z score (aver)” value under setting [1] is 2.76. Under setting [2], the Clasf entry is “W (weak (Z score 2-3)”.
The matching figures for `CS(=O)(=O)c1ccc2[nH]c(C(=O)N3CCN(c4ncccc4C(F)(F)F)CC3)cc2c1` [519A06]: 2.71 and “W (weak (Z score 2-3)”.
The matching figures for `CCN(C(=S)Nc1cccc(C(F)(F)F)c1)c1ccccc1` [541K01]: 4.12 and “M (medium (Z score 3-5))”.
As for `N#CC1=C(N)C(C#N)(C#N)C(c2ccc(Br)cc2)C2CN(Cc3ccccc3)CC=C12` (stereo not drawn) [1160K18], the “Z score (aver)” value under setting [1] was 2.90. For the same compound, under setting [2], the Clasf result is given as “W (weak (Z score 2-3)”.
Consider `O=C(Nc1ccc([N+](=O)[O-])cc1Cl)c1cc(Cl)ccc1O` [1568G21], for which the “Z score (aver)” value under setting [1] came out at 3.77. The Clasf entry under setting [2] is “M (medium (Z score 3-5))”.
The matching figures for `CC(C)(C)c1cc2cc(NS(=O)(=O)c3ccc(Cl)cc3)ccc2[nH]1` [521I19]: 9.14 and “S (strong (Z score > 5))”.
The matching figures for `N#CC1(C#N)C(c2ccccc2I)C(C(=O)C23CC4CC(CC(C4)C2)C3)N2c3ccccc3C=CC21` (stereo not drawn) [669O10]: 6.23 and “S (strong (Z score > 5))”.
Take `CCN(CC)CCOC(=O)C1(C2CCCCC2)CCCCC1.Cl` [500I04]: the “Z score (aver)” value under setting [1] came out at 5.96. Moreover, the Clasf entry under setting [2] was “S (strong (Z score > 5))”.
For the compound `CCN(CC)CCOC(=O)C(c1ccccc1)C1CCCCC1.Cl` (stereo not drawn) [500G17], under setting [1], the “Z score (aver)” value was 2.62. In addition, the Clasf entry under setting [2] is “W (weak (Z score 2-3)”.
`N#Cc1c(N)nc(SCC(=O)NCc2ccccc2)c(C#N)c1-c1cccs1` [1159G21]: the “Z score (aver)” value under setting [1] was 3.48. Besides, the Clasf result under setting [2] is “M (medium (Z score 3-5))”.
For the compound `CCCCCCCCCCCCCCCC[N+](C)(C)CCN(Cc1ccc(OC)cc1)c1ncccn1` [1570J12], under setting [1], the “Z score (aver)” value was 8.18. Besides, the Clasf entry under setting [2] is “S (strong (Z score > 5))”.
As to `COC(=O)Nc1nc2cc(Sc3ccccc3)ccc2[nH]1` [1568J21], the “Z score (aver)” value under setting [1] is 3.73. For the same compound, the Clasf entry under setting [2] is listed as “M (medium (Z score 3-5))”.
For `CC(=O)C1C(c2cccc(I)c2)C(C#N)(C#N)C2C=Cc3ccccc3N12` (stereo not drawn) [669K10] the same measures were 3.55 and “M (medium (Z score 3-5))”.
Take `CS(=O)(=O)c1ccc(F)c(N2C(=O)C=CC2=O)c1` [518H15]: the “Z score (aver)” value under setting [1] is recorded as 7.59. Moreover, the Clasf entry under setting [2] is “S (strong (Z score > 5))”.
For `O=C1C2C3c4ccccc4C(CO)(c4ccccc43)C2C(=O)N1c1ccc(Br)cc1` (stereo not drawn) [1160E22], under setting [1], the “Z score (aver)” value was found to be 2.44. Besides, the Clasf result under setting [2] is “W (weak (Z score 2-3)”.
Regarding `CCCNC(=O)Nc1nc(Nc2ccc(Cl)cc2)n[nH]1` [1520J18], the “Z score (aver)” value under setting [1] was 3.47. Moreover, the Clasf result under setting [2] is on record as “M (medium (Z score 3-5))”.
Turning to `O=C(NCCCn1ccnc1)OCc1ccc(C#Cc2ccccc2)s1` [567M14], under setting [1], the “Z score (aver)” value is reported as 2.83. The Clasf entry under setting [2] is reported as “W (weak (Z score 2-3)”.
As for `COc1ccc(S(=O)(=O)N(Cc2ccc(Cl)cc2)Cc2ccc3cc[nH]c3c2)cc1` [522N08], the “Z score (aver)” value under setting [1] was 3.74. The Clasf result under setting [2] is recorded as “M (medium (Z score 3-5))”.
As to `CC[C@H](CO)Nc1nc(NCc2ccccc2)c2ncn(C(C)C)c2n1` [roscovitine, reference compound], the “percentage of p27 positive cells” value was “up to 50%”.
As to `CC(C)(C)c1cc2cc(NC(=O)C3CC3)ccc2[nH]1` [520D04], under setting [1], the “Z score (aver)” value is reported as 2.80. The Clasf entry under setting [2] is on record as “W (weak (Z score 2-3)”.
Consider `Cl.Fc1ccc(C(OCCN2CCN(CCCc3ccccc3)CC2)c2ccc(F)cc2)cc1` [1569M13], for which, under setting [1], the “Z score (aver)” value was found to be 5.81. Besides, the Clasf entry under setting [2] is on record as “S (strong (Z score > 5))”.
Consider `CCN(CC)c1cc(-c2ccc(F)cc2)nc(-c2ccncc2)n1` [1306I06], for which, under setting [1], the “Z score (aver)” value stood at 3.11. Also, the Clasf result under setting [2] is listed as “M (medium (Z score 3-5))”.
For the compound `CSc1ccc2c(c1)N(CCC1CCCCN1C)c1ccccc1S2.Cl` (stereo not drawn) [1568O17], the Clasf result was “W (key: S: strong (Z score > 5); M: medium (Z score 3-5); W: weak (Z score 2-3)” and the “Z score (aver)” value turned out to be 2.51.
`CC[C@@]1(O)C(=O)OCc2c1cc1n(c2=O)Cc2cc3ccccc3nc2-1` [camptothecin, reference compound]: under “LNCaP-S14, ~5 to 35 μM, 18 h”, the “hit in primary screen (increased percentage of p27 positive cells)” value was “identified”.
`CCCCc1ccc(NC(C)=O)c(C)c1` [541G02]: the Clasf result is recorded as “S (key: S: strong (Z score > 5); M: medium (Z score 3-5); W: weak (Z score 2-3)” and the “Z score (aver)” value was 7.67.
For the compound `C1CCC(C(CC2CCCCN2)C2CCCCC2)CC1.O=C(O)C=CC(=O)O` (stereo not drawn) [1568J14], the “Z score (aver)” value under setting [1] amounted to 7.22. Moreover, the Clasf result under setting [2] is “S (strong (Z score > 5))”.
The matching figures for `O=C(NC1=C(Cl)C(=O)c2ccccc2C1=O)OC1CCCCCCC1` [567K05]: 2.74 and “W (weak (Z score 2-3)”.
As for `CCC1(O)C(=O)OCc2c1cc1n(c2=O)Cc2cc3c(O)cccc3nc2-1` (stereo not drawn) [1361B06], under setting [1], the “Z score (aver)” value amounted to 7.99. Also, the Clasf result under setting [2] is recorded as “S (strong (Z score > 5))”.
As to `CC1OC(=O)C(C(C)C)NC(=O)C(C(C)C)OC(=O)C(C(C)C)NC(=O)C(C)OC(=O)C(C(C)C)NC(=O)C(C(C)C)OC(=O)C(C(C)C)NC(=O)C(C)OC(=O)C(C(C)C)NC(=O)C(C(C)C)OC(=O)C(C(C)C)NC1=O` (stereo not drawn) [1362N07], under setting [1], the “Z score (aver)” value is reported as 7.42. Besides, under setting [2], the Clasf result is listed as “S (strong (Z score > 5))”.
The matching figures for `CCC1(O)CC(OC2CC(N(C)C)C(OC3CC(O)C(OC4CCC(=O)C(C)O4)C(C)O3)C(C)O2)c2c(cc3c(c2O)C(=O)c2c(O)cccc2C3=O)C1C(=O)OC` (stereo not drawn) [502B20]: 3.61 and “M (medium (Z score 3-5))”.
As to `Clc1ccc(CSC(Cn2ccnc2)c2ccc(Cl)cc2Cl)cc1.O=[N+]([O-])O` (stereo not drawn) [500K22], the “Z score (aver)” value under setting [1] came to 3.37. For the same compound, under setting [2], the Clasf entry is given as “M (medium (Z score 3-5))”.
Take `COc1cc(OC)c(CN2CCC(NC(=O)c3ccc(-n4nc(C(C)(C)C)cc4C(C)(C)C)cc3)C2)c(OC)c1` (stereo not drawn) [567D12]: the “Z score (aver)” value under setting [1] came out at 8.89. For the same compound, under setting [2], the Clasf entry is reported as “S (strong (Z score > 5))”.
As to `Cc1onc(-c2c(Cl)cccc2Cl)c1-c1csc(CCn2c(=O)oc3ccccc32)n1` [1520L12], under setting [1], the “Z score (aver)” value came to 2.13. Also, under setting [2], the Clasf result is recorded as “W (weak (Z score 2-3)”.
Consider `CCCCCCc1ccc(O)cc1O` [500E16], for which the “Z score (aver)” value under setting [1] is on record as 3.71. Moreover, the Clasf result under setting [2] was “M (medium (Z score 3-5))”.
With `Sc1nnc2c3ccccc3n(CCc3ccccc3)c2n1` [1160H09], the “Z score (aver)” value under setting [1] was 2.51. For the same compound, the Clasf result under setting [2] was “W (weak (Z score 2-3)”.
In the case of `O=C(OCn1ncc(Cl)c(Cl)c1=O)c1ccc(C(F)(F)F)cc1` [567M13], under setting [2], the Clasf entry is given as “S (strong (Z score > 5))”.
In the case of `Cc1[nH]cnc1-c1ccc(C(F)(F)F)cc1` [522D05], the “Z score (aver)” value under setting [1] is on record as 3.87. In addition, the Clasf entry under setting [2] is “M (medium (Z score 3-5))”.
On to `CC1=CC(=O)c2ccccc2C1=O` [1569K20], for which the “Z score (aver)” value under setting [1] is recorded as 6.94. Besides, the Clasf result under setting [2] is recorded as “S (strong (Z score > 5))”.
For `COc1ccccc1CN(C(=O)Nc1ccc(F)cc1F)c1ccc2[nH]c(C(C)(C)C)cc2c1` [522J16], the “Z score (aver)” value under setting [1] worked out at 4.05. Besides, under setting [2], the Clasf result was “M (medium (Z score 3-5))”.
Take `O=c1cc(-c2ccc(O)c(O)c2)oc2cc(O)cc(O)c12` [1570N21]: the “Z score (aver)” value under setting [1] came out at 3.48. Further, the Clasf result under setting [2] is “M (medium (Z score 3-5))”.
As for `CCCCOc1ccc(C(=O)CCN2CCCCC2)cc1.Cl` [1568F10], the “Z score (aver)” value under setting [1] turned out to be 2.33. For the same compound, under setting [2], the Clasf result was “W (weak (Z score 2-3)”.
On to `CO[C@@]12[C@H](COC(N)=O)C3=C(C(=O)C(C)=C(N)C3=O)N1C[C@@H]1N[C@@H]12` [mitomycin C, reference compound], for which the “hit in primary screen (increased percentage of p27 positive cells)” value is recorded as “identified”.
`Cc1cc(C2CCCCC2)n(O)c(=O)c1.NCCO` [502D07]: the “Z score (aver)” value under setting [1] was 4.86. For the same compound, the Clasf entry under setting [2] was “M (medium (Z score 3-5))”.
With `COc1cc([C@@H]2c3cc4c(cc3[C@@H](O[C@@H]3O[C@@H]5CO[C@@H](C)O[C@H]5[C@H](O)[C@H]3O)[C@H]3COC(=O)[C@H]23)OCO4)cc(OC)c1O` [etoposide, reference compound], where the note is “LNCaP-S14, ~5 to 35 μM, 18 h”, the “hit in primary screen (increased percentage of p27 positive cells)” value is reported as “identified”.
Take `C=CCN1C(=O)CC(C(=O)Nc2ccc(OC)cc2)SC1=Nc1ccc(Cl)cc1` (stereo not drawn) [1158M12]: the “Z score (aver)” value under setting [1] is recorded as 2.69. In addition, the Clasf entry under setting [2] is given as “W (weak (Z score 2-3)”.
